Reference: PMC7482066, “Unstable Mechanisms of Resistance to Inhibitors of Escherichia coli Lipoprotein Signal Peptidase” (mBio, 2020)
≈ marks a conversion by molar mass, not a printed value. Entries after “also recorded” stand apart in the source; their conditions may differ.

What was measured:
[1] = test system: G0790-resistant CFT073 Δlpp; experiment: MIC against G0790-resistant CFT073 Δlpp strains; type: cell-based, E. coli; details: non-lspA_GA
Description: MICs of compounds in each strain were determined in cation-adjusted Mueller-Hinton II (MHII) broth or MHII agar according to the Clinical and Laboratory Standards Institute protocol (CLSI 2006). To measure the effect of protein binding on activity, MIC assays were performed in the presence of 50% heat-inactivated human serum. The serum killing assay was performed as described previously ([43]). FOR assays and growth on plates containing G0790 were always performed on MHII agarose plates.
Frequencies of resistance (FORs) of G0790 were determined for E. coli CFT073, E. cloacae (ATCC 13047), and K. pneumoniae (ATCC 700603) as previously published ([70]). To determine the FOR, 3 to 4 colonies of the strain to be tested were picked from a fresh plate and diluted to an optical density at 600 nm (OD600) of 0.00001 in 1 ml of cation-adjusted MHBII. Ten independent 5-ml cultures in MHBII were prepared by inoculating 5 μl (approximately 1 × 10^3 CFU) and incubated at 37°C for 18 h. […] In parallel, CFU from each independent culture was measured by spotting 10-fold serial dilutions on MHII agar plates and incubated at 37°C for 18 h. Colonies were counted at days 1, 2, and 3 postinoculation. FOR was calculated as the ratio of the total number of resistant colonies relative to the total CFU plated. […]

[2] = test system: K. pneumoniae 700603; experiment: Frequency of resistance (FOR); type: cell-based; details: 4× MIC
Description: Frequencies of resistance (FORs) of G0790 were determined for E. coli CFT073, E. cloacae (ATCC 13047), and K. pneumoniae (ATCC 700603) as previously published ([70]). To determine the FOR, 3 to 4 colonies of the strain to be tested were picked from a fresh plate and diluted to an optical density at 600 nm (OD600) of 0.00001 in 1 ml of cation-adjusted MHBII. Ten independent 5-ml cultures in MHBII were prepared by inoculating 5 μl (approximately 1 × 10^3 CFU) and incubated at 37°C for 18 h. The bacteria were pelleted by centrifugation at 4000 × g at 4°C for 15 min and resuspended in 0.5 ml fresh MHBII. Two hundred fifty microliters of the bacterial suspension was plated evenly on MHII agarose plates containing globomycin or G0790 at a final concentration of 4× and 8× MIC. In parallel, CFU from each independent culture was measured by spotting 10-fold serial dilutions on MHII agar plates and incubated at 37°C for 18 h. Colonies were counted at days 1, 2, and 3 postinoculation. FOR was calculated as the ratio of the total number of resistant colonies relative to the total CFU plated. For strains that had no resistant colonies growing on plates, the p0 method was used to calculate the FOR (FOR = m/total CFU plated, where m = −ln p0 and p0 is the proportion of cultures with no mutants; 0.7 ≥ p0 ≥ 0.1), as described previously ([71]). Colonies were picked and resuspended in 30 μl MHBII broth medium, and 10 μl was plated on an MHII agar plate containing G0790 to be used to determine the MIC. Of the remaining 20 μl, half was used to inoculate 1.5 ml MHBII broth medium containing G0790 and grown at 37°C for 18 h to generate cell lysates for Western blot analysis, isolate genomic DNA (gDNA) for whole-genome sequencing, and for frozen glycerol stocks.

[3] = test system: E. coli CFT073; experiment: Bactericidal activity, CFU over time; type: cell-based; details: G0790 at 2× MIC, two independent experiments in duplicates
[4] = test system: E. coli CFT073; experiment: Electron microscopy / live-cell imaging of morphology; type: cell-based; details: CFT073, 2× MIC, 1 h (EM)
Description: Electron microscopy was performed as previously described ([61]). […] Cells were immediately placed between a coverslip and a 1% MHII agarose pad containing 12.4 μM G0790 and 10 μg/ml gentamicin for imaging. Cells were maintained at 37°C during imaging with a stage-top chamber (Okolab Inc.). Cells were imaged on a Nikon Eclipse Ti inverted confocal microscope (Nikon Instruments Inc.) coupled with an UltraVIEW VoX (PerkinElmer Inc.) and a 100× (numerical aperture [NA] 1.40) oil-immersion lens objective. Images were captured at various times using an ORCA-Flash 4.0 CMOS camera (Hamamatsu Photonics), collected using Volocity software (Quorum Technologies), and processed using Fiji ([66]).

[5] = test system: G0790-resistant CFT073; experiment: MIC after in vitro passaging of G0790-resistant strains; type: cell-based, E. coli; details: in words
Description: This bacterial culture is referred to as passage 1 (P1). […] For each passage, MICs were measured and cell lysates and genomic DNA were prepared for Western blot and whole-genome sequencing analyses, respectively.

In the case of `CCCCCC[C@H]1OC(=O)CNC(=O)[C@H]([C@H](C)O)NC(=O)[C@H](CN)NC(=O)[C@H](C2CCCCC2)NC(=O)[C@H](CCC)N(C)C(=O)[C@@H]1C` [G0790], the MIC ([1]; CFT073 Δlpp 4×-R1, lspA_GA) is reported as 78 µg/mL (≈ 117 µM), the MIC ([1]; CFT073 Δlpp 4×-R2, lspA_GA) is reported as 78 µg/mL (≈ 117 µM) and the “FOR increase in K. pneumoniae 700603 relative to E. coli” value [2] is reported as roughly 17 fold. For the same compound, the “FOR (frequency of resistance)” value ([2]; MHII agarose) was 4.8 × 10^−8, the Bactericidal activity [3] was “bactericidal” and the “Cell morphology / membrane accumulation” value [4] was “globular cell morphology and accumulation of bacterial membranes; also recorded: changes in cellular morphology and membrane accumulation”. The “MIC after passaging in the absence of G0790, lspA_GA mutants” value ([5]; 4×-R3, 4×-R10, 8×-R1, 8×-R5, 3 days) was “comparable to the MIC of the parental WT strain”, the “Phenotype after passaging in the absence of G0790, 8×-R5” value ([5]; 8×-R5 (GA and ISEc10-istB insertion upstream of lpp)) was “reverted to the WT phenotype” and the “Resistance after passaging in the absence of G0790, lpp insertion (downstream) or lpp deletion strains” value ([5]; 3 days) was “maintained resistance to G0790”.
